Measurements: the NIST ThermoML archive (doi:10.1007/s10765-012-1261-6)
Where “and” joins values, the source holds several entries; their conditions need not be identical. Equal entries are not always repeated.

Details: Closed cell (Static) method

O [water]
Details | vapor or sublimation pressure
249.29 K, Crystal | 0.07045 kPa
249.35 K, Crystal | 0.07242 kPa
250.11 K, Crystal | 0.08146 kPa
252.96 K, Crystal | 0.09665 kPa
253.02 K, Crystal | 0.1036 kPa and 0.1016 kPa
253.59 K, Crystal | 0.1049 kPa
257.86 K, Crystal | 0.1607 kPa
258.04 K, Crystal | 0.1642 kPa and 0.1567 kPa
258.05 K, Crystal | 0.165 kPa
262.84 K, Crystal | 0.2552 kPa
262.98 K, Crystal | 0.2629 kPa and 0.2541 kPa
263 K, Crystal | 0.2517 kPa
267.85 K, Crystal | 0.4157 kPa
267.91 K, Crystal | 0.4036 kPa
267.93 K, Crystal | 0.392 kPa
267.99 K, Crystal | 0.423 kPa
272.87 K, Liquid | 0.6049 kPa
272.98 K, Liquid | 0.6038 kPa
273.02 K, Liquid | 0.6135 kPa
277.94 K, Liquid | 0.8666 kPa
277.95 K, Liquid | 0.8493 kPa
277.97 K, Liquid | 0.8679 kPa
278.01 K, Liquid | 0.8712 kPa
278.07 K, Liquid | 0.8686 kPa
282.91 K, Liquid | 1.211 kPa
282.94 K, Liquid | 1.215 kPa
282.95 K, Liquid | 1.197 kPa
283.03 K, Liquid | 1.224 kPa
288 K, Liquid | 1.687 kPa
292.84 K, Liquid | 2.295 kPa
293.03 K, Liquid | 2.307 kPa
293.1 K, Liquid | 2.337 kPa
302.8 K, Liquid | 4.162 kPa
303.07 K, Liquid | 4.214 kPa and 4.238 kPa
303.1 K, Liquid | 4.235 kPa
312.8 K, Liquid | 7.248 kPa
313.11 K, Liquid | 7.367 kPa
313.12 K, Liquid | 7.372 kPa
313.16 K, Liquid | 7.386 kPa
317 K, Liquid | 9.084 kPa
322.82 K, Liquid | 12.15 kPa
323.13 K, Liquid | 12.33 kPa
323.14 K, Liquid | 12.33 kPa
323.19 K, Liquid | 12.34 kPa
328.15 K, Liquid | 15.75 kPa
332.83 K, Liquid | 19.63 kPa
333.18 K, Liquid | 19.94 kPa and 19.95 kPa
333.24 K, Liquid | 19.97 kPa
338.19 K, Liquid | 25.06 kPa
342.81 K, Liquid | 30.69 kPa
343.21 K, Liquid | 31.24 kPa
343.22 K, Liquid | 31.24 kPa
343.28 K, Liquid | 31.27 kPa
348.23 K, Liquid | 38.65 kPa
352.81 K, Liquid | 46.65 kPa
353.23 K, Liquid | 47.47 kPa
353.24 K, Liquid | 47.46 kPa
353.31 K, Liquid | 47.53 kPa
358.25 K, Liquid | 57.93 kPa
362.79 K, Liquid | 68.98 kPa
363.24 K, Liquid | 70.36 kPa
363.26 K, Liquid | 70.26 kPa
363.33 K, Liquid | 70.34 kPa
368.27 K, Liquid | 84.67 kPa
373.26 K, Liquid | 101.68 kPa
373.28 K, Liquid | 101.4 kPa
373.37 K, Liquid | 102.01 kPa
